Literature values as cited in patent US10363268B2, “Proton-binding polymers for oral administration” (Tricida, Inc., priority 2013, dated 2019).

System: adult patients with CKD

O=C([O-])O.[Na+] [sodium bicarbonate, Sodium bicarbonate]
patients experiencing rapid progression (rapid decline of CrCl >3 ml/min per 1.73 m^2/yr) (CKD patients, 2 years): 9%
patients who developed ESRD (CKD patients, 2 years, ESRD = CrCl<10 ml/min): 6.5%
decline in CrCl (CKD patients, oral sodium bicarbonate for 2 years, average dose 1.82 g/day): 1.88 ml/min per 1.73 m^2
relative risk of ESRD (versus control group): 0.13
relative risk of rapid progression (versus control group): 0.15
